Measured values reported in the NIST ThermoML archive (doi:10.1021/je900227j).

Conditions: 101.33 kPa, Liquid; for speed of sound: Pulse-echo method; for mass density: Pycnometric method

CCCCCCCCBr [1-bromooctane]
Conditions | mass density [kg/m3] | speed of sound [m/s]
243.61 K | – | 1336.3
253.15 K | 1151.11 | –
263.15 K | 1140.86 | –
273.15 K | 1131.22 | –
273.28 K | – | 1235.4
283.15 K | 1121.21 | –
293.15 K | 1111.01 | –
303.15 K | 1100.89 | –
303.16 K | – | 1137.2
323.02 K | – | 1073.8
323.15 K | 1080.6 | –
343.15 K | 1060.45 | –
352.91 K | – | 981.92
363.15 K | 1039.47 | –
382.88 K | – | 892.87
383.15 K | 1018.75 | –
393.15 K | 1008.38 | –
402.55 K | – | 835.51
423.04 K | – | 778.72

CCCCBr [1-bromobutane]
Conditions | mass density [kg/m3] | speed of sound [m/s]
243.38 K | – | 1195.3
253.15 K | 1326.49 | –
263.15 K | 1313.8 | –
273.15 K | 1300.5 | –
273.26 K | – | 1091
283.15 K | 1286.37 | –
293.15 K | 1272.7 | –
298.15 K | 1265.66 | –
303.15 K | 1258.55 | –
323.15 K | 1229.53 | –
323.22 K | – | 925.99
343.22 K | – | 861.16
363.23 K | – | 797.6
383.31 K | – | 735.21

CCCCCBr [1-bromopentane]
Conditions | mass density [kg/m3] | speed of sound [m/s]
243.73 K | – | 1240
253.15 K | 1260.65 | –
263.15 K | 1249.88 | –
273.32 K | – | 1137.5
283.15 K | 1226.85 | –
293.15 K | 1214.88 | –
303.15 K | 1202.6 | –
303.22 K | – | 1037.1
323.15 K | 1177.13 | –
323.17 K | – | 972.37
343.15 K | 1150.97 | –
353.18 K | – | 877.57
363.15 K | 1124.69 | –
383.15 K | 1097.39 | –
383.23 K | – | 785.49
393.15 K | 1083.35 | –
403.28 K | – | 725.54
423.48 K | – | 666.58

CCCBr [1-bromopropane]
Conditions | mass density [kg/m3] | speed of sound [m/s]
243.15 K | 1431.07 | –
243.76 K | – | 1144.8
253.15 K | 1415.43 | –
263.15 K | 1400.28 | –
263.38 K | – | 1075
273.15 K | 1385.33 | –
273.31 K | – | 1040.1
283.15 K | 1369.4 | –
283.26 K | – | 1005.5
293.15 K | 1352.89 | –
293.22 K | – | 971.22
298.15 K | 1344.48 | –
298.21 K | – | 954.05
323.21 K | – | 870.16
343.21 K | – | 804.19
363.23 K | – | 739.38
383.47 K | – | 674.94

CCCCCCCCCCCBr [1-bromoundecane]
Conditions | mass density [kg/m3] | speed of sound [m/s]
273.15 K | 1067.26 | –
273.42 K | – | 1307
283.2 K | 1058.34 | –
293.2 K | 1049.49 | –
298.15 K | 1045.03 | –
303.22 K | – | 1209
323.19 K | – | 1145.6
323.2 K | 1023.21 | –
343.2 K | 1005.75 | –
353.14 K | – | 1054.4
363.2 K | 987.93 | –
383.14 K | – | 966.59
383.2 K | 969.56 | –
403.13 K | – | 909.71
403.25 K | 951.27 | –
423.13 K | – | 854.45

CCCCCCCBr [1-bromoheptane]
Conditions | mass density [kg/m3] | speed of sound [m/s]
243.74 K | – | 1308.3
253.15 K | 1180.21 | –
263.15 K | 1169.57 | –
273.15 K | 1159.15 | –
273.33 K | – | 1207.2
283.15 K | 1148.71 | –
298.15 K | 1132.91 | –
303.19 K | – | 1108.7
323.14 K | – | 1045.1
323.15 K | 1105.97 | –
343.15 K | 1084.54 | –
353.14 K | – | 952.86
363.15 K | 1061.75 | –
383.15 K | 1038.55 | –
383.17 K | – | 863.47
393.15 K | 1026.63 | –
423.22 K | – | 748.09

CCCCCCCCCCBr [1-bromodecane]
Conditions | mass density [kg/m3] | speed of sound [m/s]
253.4 K | 1105.66 | –
263.3 K | 1096.34 | –
273.25 K | 1087.32 | –
283.2 K | 1078.06 | –
293.15 K | 1069.01 | –
298.15 K | 1064.47 | –
323.15 K | 1041.72 | –
323.2 K | – | 1123.8
343.15 K | 1023.01 | –
353.19 K | – | 1032.2
363.15 K | 1004.33 | –
383.15 K | 985.41 | –
383.22 K | – | 944.49
403.23 K | – | 888.22
403.25 K | 966.27 | –
423.27 K | – | 833.21
423.3 K | 946.49 | –

CCCCCCCCCCCCBr [1-bromododecane]
Conditions | mass density [kg/m3] | speed of sound [m/s]
273.15 K | 1056.54 | –
273.32 K | – | 1323.5
283.15 K | 1048.47 | –
293.15 K | 1039.81 | –
303.15 K | 1031.27 | –
303.21 K | – | 1224.8
323.15 K | 1013.99 | –
323.18 K | – | 1161.2
343.15 K | 996.24 | –
353.15 K | – | 1069.7
363.15 K | 979.02 | –
383.15 K | 961.54 | –
383.17 K | – | 982.95
393.15 K | 952.43 | –
403.19 K | – | 926.37
413.15 K | 933.49 | –
423.14 K | – | 871.74
423.15 K | 923.65 | –

CCCCCCCCCBr [1-bromononane]
Conditions | mass density [kg/m3] | speed of sound [m/s]
253.15 K | 1124.52 | –
253.46 K | – | 1329.9
263.2 K | 1115.2 | –
273.15 K | 1105.5 | –
273.29 K | – | 1262.7
283.15 K | 1096.09 | –
293.15 K | 1086.58 | –
298.15 K | 1082.2 | –
303.15 K | – | 1165.1
323.14 K | – | 1101.1
323.15 K | 1058.34 | –
343.15 K | 1038.92 | –
353.1 K | – | 1009.9
363.15 K | 1019.42 | –
383.05 K | – | 921.46
383.15 K | 999.36 | –
393.15 K | 989.17 | –
402.98 K | – | 864.42
413.15 K | 968.48 | –
422.72 K | – | 808.79

CCCCCCBr [1-bromohexane]
Conditions | mass density [kg/m3] | speed of sound [m/s]
243.6 K | – | 1273.8
253.15 K | 1217.95 | –
263.15 K | 1206.62 | –
273.15 K | 1195.28 | –
273.31 K | – | 1172.8
283.15 K | 1183.82 | –
298.15 K | 1166.83 | –
303.2 K | – | 1073.6
323.15 K | 1137.27 | –
323.2 K | – | 1009.3
343.15 K | 1113.66 | –
353.16 K | – | 916.03
383.15 K | 1066.11 | –
383.19 K | – | 826.35
403.15 K | 1040.91 | –
403.25 K | – | 767.47
423.23 K | – | 709.98
